Laboratory results taken from patent US8455620B2, “Cloning and expression of a novel phytase” (Feed Research Institute Chinese Academy of Agricultural …, priority 2006, dated 2013).
Entries after “also recorded” stand apart in the source; their conditions may differ. Like-named read-outs stand apart in the source and are kept apart here.

Experiments:
r-AppA = type: biochemical, Yersinia intermedia; settings: 1 mM, pH 4.5
[1] = Specific activity of purified r-AppA, ferrous sulfate-molybdenum blue method; type: biochemical; settings: r-AppA purified through Sephacryl S-200; pH 4.5; protein by Lowry method
Experimental: A total of 72 transformants were analyzed for phytase activity by ferrous sulfate-molybdenum blue method. 950 μl of substrate solution (4 mM sodium phytase in 0.25M sodium acetate buffer, pH5.0) was added to 50 μl diluted enzyme solution, which was reacted at 37° C. for 30 minutes. Then, 1 mL of 10% TCA (trichloroacetic acid) solution was added to stop the reaction. As a control, TCA solution was added into the enzyme solution to inactivate the enzyme and then substrate solution was added. After the reaction has terminated, 2 mL of reagent C (0.576M acid sulfate, 1% ammonium molybdate, 7.32% Ferrous sulfate.7H2O) was added, and left for 10 minutes. The intensity of the blue color was measured at 700 nm, and activities in enzyme solution and in a control were measured. 1 unit of phytase activity was determined to be the enzyme amount releasing 1 μmol of phosphate for 1 minute. […]
In order to determinate the specific activity, the concentration of the r-AppA purified through Sephacryl S-200 was determined by the Lowry method, and the enzyme activity of the r-AppA purified was determined by ferrous sulfate-molybdenum blue method at pH 4.5. As a result, the specific activity of r-AppA purified was 3960±248 U/mg, which is the highest specific activity, comparing to other phytases recorded previously.

[2] = Enzyme activity of r-AppA according to temperature and pH; type: biochemical
Experimental: A total of 72 transformants were analyzed for phytase activity by ferrous sulfate-molybdenum blue method. 950 μl of substrate solution (4 mM sodium phytase in 0.25M sodium acetate buffer, pH5.0) was added to 50 μl diluted enzyme solution, which was reacted at 37° C. for 30 minutes. Then, 1 mL of 10% TCA (trichloroacetic acid) solution was added to stop the reaction. As a control, TCA solution was added into the enzyme solution to inactivate the enzyme and then substrate solution was added. After the reaction has terminated, 2 mL of reagent C (0.576M acid sulfate, 1% ammonium molybdate, 7.32% Ferrous sulfate.7H2O) was added, and left for 10 minutes. The intensity of the blue color was measured at 700 nm, and activities in enzyme solution and in a control were measured. 1 unit of phytase activity was determined to be the enzyme amount releasing 1 μmol of phosphate for 1 minute. Two days after methanol induction, 11 transformants out of 72 produced phytase activity from 48 to 270 U/mL of medium. Obviously, the ORF obtained above, was a novel gene, which encoded a polypeptide with phytase activity. The polypeptide with phytase activity, which encoded by mature region of OFR, was named r-AppA.
(§1) The r-AppA purified through Sephacryl S-200 was investigated an enzyme activity of phytase, according to temperature and pH. The effect of pH on phytase activity was determined using the following buffer solutions: glycine-HCl, pH 1.5-3.5; Na acetate-acetic acid, pH 3.5-6.0; Tris-HCl, pH 6.0-8.5, and glycine-NaOH, pH 8.5-10. All buffers used for dilution contained 0.05% BSA and 0.05% Triton. As is shown in FIG. 2, the enzyme activity varied with pH. […] 70% of the enzyme activity was still maintained at pH 2.5, and 65% of the enzyme activity was still maintained at pH 5.5. […] And over 70% activity still remained at pH 1.0-2.0.
(§2) As is shown in FIG. 3A, the enzyme activity varied with temperature. The temperature optima were determined at the pH optimum (pH 4.5) ranging the temperature values from 20 to 80° C. […] As is shown in FIG. 3B, when the enzyme was left at 80° C. for 10 minutes, over 50% of the activity was remained, and 40% of the activity was remained, at 80° C. for 1 hour. Compared to AppA from E. coli, which was widely used in feed industry as a feed additive, the r-AppA are higher stability at higher temperatures.

pH stability of r-AppA = type: physicochemical; settings: 37° C.
Experimental: as §1

[3] = Heat stability of r-AppA at 80° C.; type: physicochemical
Experimental: as §2

pepsin = test: Protease resistance of r-AppA, incubation with pepsin; type: biochemical; settings: 0.025 mg/ml phytase, 0.1 mg/ml pepsin, 37° C., 5 min to 2 h
Experimental: (§3) To determine the protease resistance, the purified phytase (0.025 mg/ml) was incubated with 0.1 mg/ml of pepsin and trypsin at 37° C. And then, sample incubated was collected respectively at 5 min, 10 min, 20 min, 30 min, 1 h, and 2 hs.

trypsin = test: Protease resistance of r-AppA, incubation with trypsin; type: biochemical; settings: 0.025 mg/ml phytase, 0.1 mg/ml trypsin, 37° C., 5 min to 2 h
Experimental: as §3

[Ag+] [Ag]
Enzyme activity of r-AppA (control = 100) (r-AppA): 84

[Ca+2] [Ca]
Enzyme activity of r-AppA (control = 100) (r-AppA): 98

[Co+2] [Co]
Enzyme activity of r-AppA (control = 100) (r-AppA): 93

[Cu+2] [Cu]
Enzyme activity of r-AppA (control = 100) (r-AppA): 61
effect on enzyme activity of r-AppA, in words (r-AppA; listed as Cu^2+): obviously inhibited; also recorded: strongly inhibited

O=C(O)CN(CCN(CC(=O)O)CC(=O)O)CC(=O)O [EDTA]
Enzyme activity of r-AppA (control = 100) (r-AppA): 101
effect on enzyme activity of r-AppA, in words (r-AppA): not significantly changed

[Fe+2] [Fe]
Enzyme activity of r-AppA (control = 100) (r-AppA): 47
effect on enzyme activity of r-AppA, in words (r-AppA; listed as Fe^2+): obviously inhibited; also recorded: strongly inhibited

[K+] [K]
Enzyme activity of r-AppA (control = 100) (r-AppA): 99

[Li+] [Li]
Enzyme activity of r-AppA (control = 100) (r-AppA): 95

[Mg+2] [Mg]
Enzyme activity of r-AppA (control = 100) (r-AppA): 94

[Mn+2] [Mn]
Enzyme activity of r-AppA (control = 100) (r-AppA): 104
effect on enzyme activity of r-AppA, in words (r-AppA): weakly enhanced

[Na+] [Na]
Enzyme activity of r-AppA (control = 100) (r-AppA): 95

[Ni+2] [Ni]
Enzyme activity of r-AppA (control = 100) (r-AppA): 98

CCCCCCCCCCCCOS(=O)(=O)[O-].[Na+] [SDS]
Enzyme activity of r-AppA (control = 100) (r-AppA): 9
effect on enzyme activity of r-AppA, in words (r-AppA): almost lost

[Zn+2] [Zn]
Enzyme activity of r-AppA (control = 100) (r-AppA): 44
effect on enzyme activity of r-AppA, in words (r-AppA; listed as Zn^2+): obviously inhibited; also recorded: strongly inhibited

r-AppA: polypeptide with phytase activity encoded by mature region of the ORF from Yersinia intermedia H-27, expressed in Pichia pastoris (SEQ ID NO: 3)
specific activity [1]: 3960±248 U/mg
enzyme activity maintained (relative to maximum) ([2]; at pH 2.5): 70%
temperature of highest activity (optimal temperature) ([2]; at pH 4.5, 20 to 80° C.): 55 °C
enzyme activity maintained (relative to maximum) ([2]; at pH 5.5): 65%
pH of highest activity (optimal pH) ([2]; buffers pH 1.5-10): 4.5
activity remained (pH stability) (pH stability of r-AppA; pH 1.0-2.0, 2 hours): over 70%
activity remained (pH stability) (pH stability of r-AppA; pH 2.5-10, 2 hours): over 85%
activity remained (heat stability) ([3]; 80° C. for 10 minutes): over 50%
activity remained (heat stability) ([3]; 80° C. for 1 hour): 40%
phytase activity after incubation with pepsin (pepsin): not significantly changed
phytase activity after incubation with pepsin (pepsin; listed as phytase): strong resistance
phytase activity after incubation with trypsin (trypsin): not significantly changed
phytase activity after incubation with trypsin (trypsin; listed as phytase): strong resistance
